# Values of other authors in patent publication US6906047B2, “Aqueous ifosfamide composition” (Gensia Sicor Pharmaceuticals, Inc., priority 2001, dated 2005).
smiles,measurement,value
"O=P1(NCCCl)OCCCN1CCCl (stereo not shown) [ifosfamide, 3-(2-chloroethyl)-2-[(2-chloroethylamino)]-tetrahydro-2H-1,3,2-oxazaphosphorin-2-oxide]",solubility of ifosfamide in water,about 10 % by weight
